Reference: patent US20230339851A1, “CXCR6 SULFONAMIDE COMPOUNDS” (CHEMOCENTRYX, INC., priority 2022, published 2023)

Biological target: T1, human CXCR6 (Homo sapiens, UniProt O00574)
T1 construct: expressed in transfected cells
Assay: Radioligand Binding Assay (125I-CXCL16 displacement)
Settings: L1.2 cells stably transfected with human CXCR6 cDNA, 0.1 nM 125I-CXCL16, 4° C., three-hour incubation; read-out: Potency (IC50)
How it was run: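 L1.2 cells stably expressing human CXCR6 incubated 3 h at 4 °C in HBSS/0.1% BSA with 0.1 nM 125I-CXCL16 and graded compound concentrations. Bound radioactivity collected by filtration and counted; IC50 from 3-parameter nonlinear regression.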

T1 sequence (O00574 whole entry): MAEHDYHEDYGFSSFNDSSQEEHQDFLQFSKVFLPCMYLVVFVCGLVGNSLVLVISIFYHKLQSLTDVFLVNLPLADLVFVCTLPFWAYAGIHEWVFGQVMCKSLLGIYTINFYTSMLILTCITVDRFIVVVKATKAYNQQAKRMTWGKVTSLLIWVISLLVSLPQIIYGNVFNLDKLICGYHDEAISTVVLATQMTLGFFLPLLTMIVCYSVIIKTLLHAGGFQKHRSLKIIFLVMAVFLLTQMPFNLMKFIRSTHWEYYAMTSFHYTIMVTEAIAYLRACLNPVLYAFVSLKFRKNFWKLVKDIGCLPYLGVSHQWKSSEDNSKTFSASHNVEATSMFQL

Row | IC50 | Structure (SMILES)
1 | 200 to 750 nM | CCOc1cc(NC(=O)Cc2ccccc2OC)ccc1S(=O)(=O)Nc1cccc(OC(F)(F)F)c1 [Example 1.566]
2 | ≤ 200 nM | COc1cc(NC(=O)c2ccnn2C)ccc1S(=O)(=O)Nc1ccc(C)c(C(F)(F)F)c1 [Example 1.552]
3 | 200 to 750 nM | CCOc1cc(NC(=O)C(C)C(O)C2CC3C=CC2C3)ccc1S(=O)(=O)Nc1cccc(OC(F)(F)F)c1 (stereo not shown) [Example 1.517]
4 | 2000 to 20000 nM | CC(=O)Nc1ccc(S(=O)(=O)Nc2cccc(C(F)(F)F)c2)c(C(C)C)c1 [Example 1.573]
5 | ≤ 200 nM | CCOc1cc(NC(=O)C(O)c2c(F)cccc2F)ccc1S(=O)(=O)Nc1cccc(OC(F)(F)F)c1 (stereo not shown) [Example 1.511]
6 | 2000 to 20000 nM | CCOc1cc(NC(=O)[C@@H]2C[C@@H](O)[C@@H](O)C2)ccc1S(=O)(=O)Nc1cccc(OC(F)(F)F)c1 [Example 1.280]
7 | 2000 to 20000 nM | CC(C)Oc1cc(NC(=O)c2ccnn2C)ccc1S(=O)(=O)Nc1cccc(C(F)(F)F)c1 [Example 1.317]
8 | ≤ 200 nM | CCCc1cc(NC(=O)[C@@H](CO)c2ccccc2)ccc1S(=O)(=O)Nc1cccc(OC(F)(F)F)c1 [Example 1.509]
9 | ≤ 200 nM | CCOc1cc(NC(=O)[C@@H](CO)c2ccccc2)ccc1S(=O)(=O)Nc1ccc(C)c(C(F)(F)F)c1 [Example 1.425]
10 | ≤ 200 nM | CCOc1cc(NC(=O)[C@@H](NC(=O)C(F)(F)F)C(C)C)ccc1S(=O)(=O)Nc1cccc(OC(F)(F)F)c1 [Example 1.503]
11 | 200 to 750 nM | CCOc1cc(NC(=O)[C@H](CO)c2ccccc2)ccc1S(=O)(=O)Nc1cccc(OC(F)(F)F)c1 [Example 1.287]
12 | 200 to 750 nM | COc1cc(NC(=O)C2CC3C=CC2C3)ccc1S(=O)(=O)Nc1cccc(C(F)(F)F)c1 (stereo not shown) [Example 1.379]
13 | ≤ 200 nM | CCOc1cc(NC(=O)[C@@H](NC(N)=O)C(C)C)ccc1S(=O)(=O)Nc1cccc(OC(F)(F)F)c1 [Example 1.334]
14 | 200 to 750 nM | CCOc1cc(NC(=O)C2CCCCN2)ccc1S(=O)(=O)Nc1cccc(OC(F)(F)F)c1 (stereo not shown) [Example 1.300]

Continued, molecule first:

Row | Structure (SMILES) | IC50
15 | CCOc1cc(NC(=O)C(C)(O)c2ccccc2)ccc1S(=O)(=O)Nc1cccc(OC(F)(F)F)c1 (stereo not shown) [Example 1.095] | ≤ 200 nM
16 | CCOc1cc(NC(=O)[C@@H](CO)c2ccccc2)ccc1S(=O)(=O)Nc1cccc(OC(C)C)c1 [Example 1.119] | 200 to 750 nM
17 | CCOc1cc(NC(=O)C(CO)C2CCOC2)ccc1S(=O)(=O)Nc1cccc(OC(F)(F)F)c1 (stereo not shown) [Example 1.199] | ≤ 200 nM
18 | CCOc1cc(NC(=O)[C@@H](O)C(C)C)ccc1S(=O)(=O)Nc1ccc(Cl)c(C)c1 [Example 1.223] | ≤ 200 nM
19 | CCOc1cc(NC(=O)C(O)C(C)O)ccc1S(=O)(=O)Nc1cccc(OC(F)(F)F)c1 (stereo not shown) [Example 1.164] | 750 to 2000 nM
20 | COCc1cc(NC(=O)[C@@H](CO)c2ccccc2)ccc1S(=O)(=O)Nc1cccc(OC(F)(F)F)c1 [Example 1.143] | ≤ 200 nM
21 | Cc1cc(NC(=O)c2nccn2C)ccc1S(=O)(=O)Nc1cccc(C(F)(F)F)c1 [Example 1.116] | 2000 to 20000 nM
22 | CCOc1cc(NC(=O)[C@@H](CO)c2ccccc2)ccc1S(=O)(=O)Nc1cccc(OC(F)(F)F)c1C [Example 1.274] | 2000 to 20000 nM
23 | COc1cc(NC(=O)C(CO)c2ccccc2)ccc1S(=O)(=O)Nc1cccc(C(F)(F)F)c1 (stereo not shown) [Example 1.206] | 200 to 750 nM
24 | CCOc1cc(NC(=O)[C@@H](CO)c2ccccc2)ccc1S(=O)(=O)Nc1ccc(C)c(OC(F)(F)F)c1 [Example 1.003] | ≤ 200 nM
25 | CCCc1cc(NC(=O)[C@@H](O)C(C)C)ccc1S(=O)(=O)Nc1cccc(OC(F)(F)F)c1 [Example 1.071] | ≤ 200 nM
26 | CCOc1cc(NC(=O)c2cc(=O)n(C)cc2C)ccc1S(=O)(=O)Nc1cccc(OC(F)(F)F)c1 [Example 1.126] | ≤ 200 nM
27 | COc1cc(NC(=O)C2CC3CCC32O)ccc1S(=O)(=O)Nc1cccc(C(F)(F)F)c1 (stereo not shown) [Example 1.035] | 200 to 750 nM
28 | COc1cc(NC(=O)C2CC3C=CC2C3)ccc1S(=O)(=O)Nc1cccc(C(F)(F)F)c1 (stereo not shown) [Example 1.077] | 2000 to 20000 nM
